One block for each compound: values may come before it.
Test system: 521955-158-R2-J5-PDC complex spheroid viability
Experiment: Anticancer human tumor 521955-158-R2-J5-PDC patient-derived pancreatic carcinoma cell line growth inhibition [GQUAD]
Details: for IC50: curve of first compound; for viability, T/C: stronger effect = lower value
Method in brief: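 Multi-cell-type spheroids of tumor cells with HUVEC and mesenchymal stem cells, treated with drug combinations. Concentrations descend in half-log steps from near clinical Cmax, or from 10 microM where Cmax is unknown; viability read-out.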

[1] = second compound 0.0316 µM, first compound 0.000999 µM
[2] = second compound 0.0316 µM, first compound 0.00316 µM
[3] = second compound 0.0316 µM, first compound 0.00999 µM
[4] = second compound 0.0316 µM, first compound 0.0316 µM
[5] = second compound 0.0316 µM, first compound 0.0999 µM
[6] = second compound 0.0316 µM, first compound 0.316 µM
[7] = second compound 0.1 µM, first compound 0.000999 µM
[8] = second compound 0.1 µM, first compound 0.00316 µM
[9] = second compound 0.1 µM, first compound 0.00999 µM
[10] = second compound 0.1 µM, first compound 0.0316 µM
[11] = second compound 0.1 µM, first compound 0.0999 µM
[12] = second compound 0.1 µM, first compound 0.316 µM
[13] = second compound 0.316 µM, first compound 0.000999 µM
[14] = second compound 0.316 µM, first compound 0.00316 µM
[15] = second compound 0.316 µM, first compound 0.00999 µM
[16] = second compound 0.316 µM, first compound 0.0316 µM
[17] = second compound 0.316 µM, first compound 0.0999 µM
[18] = second compound 0.316 µM, first compound 0.316 µM
[19] = second compound 1 µM, first compound 0.000999 µM
[20] = second compound 1 µM, first compound 0.00316 µM
[21] = second compound 1 µM, first compound 0.00999 µM
[22] = second compound 1 µM, first compound 0.0316 µM
[23] = second compound 1 µM, first compound 0.0999 µM
[24] = second compound 1 µM, first compound 0.316 µM
[25] = second compound 3.16 µM, first compound 0.000999 µM
[26] = second compound 3.16 µM, first compound 0.00316 µM
[27] = second compound 3.16 µM, first compound 0.00999 µM
[28] = second compound 3.16 µM, first compound 0.0316 µM
[29] = second compound 3.16 µM, first compound 0.0999 µM
[30] = second compound 3.16 µM, first compound 0.316 µM
[31] = second compound 10 µM, first compound 0.000999 µM
[32] = second compound 10 µM, first compound 0.00316 µM
[33] = second compound 10 µM, first compound 0.00999 µM
[34] = second compound 10 µM, first compound 0.0316 µM
[35] = second compound 10 µM, first compound 0.0999 µM
[36] = second compound 10 µM, first compound 0.316 µM
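Note: spheroids exposed to agents for one week before reading.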
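Throughout, for viability, T/C: 100% = DMSO vehicle control viability.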

IC50 (second compound 0.0316 µM): 1.04 nM
IC50 (second compound 0.1 µM): < 0.999 nM
IC50 (second compound 0.316 µM): < 0.999 nM
IC50 (second compound 1 µM): < 0.999 nM
IC50 (second compound 3.16 µM): < 0.999 nM
IC50 (second compound 10 µM): < 0.999 nM
SMILES: CCc1c2c(nc3ccc(O)cc13)-c1cc3c(c(=O)n1C2)COC(=O)[C@]3(O)CC + Cc1cnc(CNC(=O)c2c(=O)c3ccc(N4CCCN(C)CC4)nc3n3c2sc2ccccc23)cn1
viability, T/C [1]: 51.5%
viability, T/C [2]: 15.3%
viability, T/C [3]: 11.1%
viability, T/C [4]: 6.45%
viability, T/C [5]: 6.82%
viability, T/C [6]: 2.28%
viability, T/C [7]: 32.7%
viability, T/C [8]: 18.6%
viability, T/C [9]: 12.7%
viability, T/C [10]: 6%
viability, T/C [11]: 4.68%
viability, T/C [12]: 1.38%
viability, T/C [13]: 25.2%
viability, T/C [14]: 15.8%
viability, T/C [15]: 12.8%
viability, T/C [16]: 5.79%
viability, T/C [17]: 4.66%
viability, T/C [18]: 0.47%
viability, T/C [19]: 17.1%
viability, T/C [20]: 13.5%
viability, T/C [21]: 7.77%
viability, T/C [22]: 1.4%
viability, T/C [23]: 0.12%
viability, T/C [24]: 0.1%
viability, T/C [25]: 13.7%
viability, T/C [26]: 9.61%
viability, T/C [27]: 3.83%
viability, T/C [28]: 0.1%
viability, T/C [29]: 0.1%
viability, T/C [30]: 0.14%
viability, T/C [31]: 12%
viability, T/C [32]: 9.68%
viability, T/C [33]: 3.64%
viability, T/C [34]: 0.13%
viability, T/C [35]: 0.17%
viability, T/C [36]: 0.21%

IC50 (second compound 0.0316 µM): > 10000 nM
IC50 (second compound 0.1 µM): > 10000 nM
IC50 (second compound 0.316 µM): < 31.6 nM
IC50 (second compound 1 µM): < 31.6 nM
IC50 (second compound 3.16 µM): < 31.6 nM
IC50 (second compound 10 µM): < 31.6 nM
SMILES: Cc1cccc(N(C)C(=O)C2C(O)CCN2c2nc(C)cc(C(F)(F)F)c2C#N)c1 (stereo unspecified) + Cc1cnc(CNC(=O)c2c(=O)c3ccc(N4CCCN(C)CC4)nc3n3c2sc2ccccc23)cn1
viability, T/C [4]: 96.8%
viability, T/C (second compound 0.0316 µM, first compound 0.1 µM): 75%
viability, T/C [6]: 92.8%
viability, T/C (second compound 0.0316 µM, first compound 1 µM): 78.9%
viability, T/C (second compound 0.0316 µM, first compound 3.16 µM): 101%
viability, T/C (second compound 0.0316 µM, first compound 10 µM): 89.6%
viability, T/C [10]: 54.9%
viability, T/C (second compound 0.1 µM, first compound 0.1 µM): 66.2%
viability, T/C [12]: 71.5%
viability, T/C (second compound 0.1 µM, first compound 1 µM): 62.2%
viability, T/C (second compound 0.1 µM, first compound 3.16 µM): 88.7%
viability, T/C (second compound 0.1 µM, first compound 10 µM): 74.6%
viability, T/C [16]: 43.7%
viability, T/C (second compound 0.316 µM, first compound 0.1 µM): 49.9%
viability, T/C [18]: 40.9%
viability, T/C (second compound 0.316 µM, first compound 1 µM): 43.7%
viability, T/C (second compound 0.316 µM, first compound 3.16 µM): 46.5%
viability, T/C (second compound 0.316 µM, first compound 10 µM): 38.2%
viability, T/C [22]: 23.6%
viability, T/C (second compound 1 µM, first compound 0.1 µM): 22.5%
viability, T/C [24]: 22.7%
viability, T/C (second compound 1 µM, first compound 1 µM): 24.4%
viability, T/C (second compound 1 µM, first compound 3.16 µM): 20.9%
viability, T/C (second compound 1 µM, first compound 10 µM): 22.9%
viability, T/C [28]: 19.1%
viability, T/C (second compound 3.16 µM, first compound 0.1 µM): 22.3%
viability, T/C [30]: 19.8%
viability, T/C (second compound 3.16 µM, first compound 1 µM): 22.8%
viability, T/C (second compound 3.16 µM, first compound 3.16 µM): 20.6%
viability, T/C (second compound 3.16 µM, first compound 10 µM): 20.1%
viability, T/C [34]: 20.7%
viability, T/C (second compound 10 µM, first compound 0.1 µM): 19.2%
viability, T/C [36]: 21.5%
viability, T/C (second compound 10 µM, first compound 1 µM): 20.2%
viability, T/C (second compound 10 µM, first compound 3.16 µM): 24.7%
viability, T/C (second compound 10 µM, first compound 10 µM): 20.2%

IC50 (second compound 0.0316 µM): > 316 nM
IC50 (second compound 0.1 µM): 316 nM
IC50 (second compound 0.316 µM): < 0.999 nM
IC50 (second compound 1 µM): < 0.999 nM
IC50 (second compound 3.16 µM): < 0.999 nM
IC50 (second compound 10 µM): < 0.999 nM
SMILES: Cn1ncnc1[C@H]1c2n[nH]c(=O)c3cc(F)cc(c23)N[C@@H]1c1ccc(F)cc1 + Cc1cnc(CNC(=O)c2c(=O)c3ccc(N4CCCN(C)CC4)nc3n3c2sc2ccccc23)cn1
viability, T/C [1]: 85.8%
viability, T/C [2]: 70.8%
viability, T/C [3]: 67.1%
viability, T/C [4]: 62%
viability, T/C [5]: 53.9%
viability, T/C [6]: 57.5%
viability, T/C [7]: 62.3%
viability, T/C [8]: 77.7%
viability, T/C [9]: 54.8%
viability, T/C [10]: 48.2%
viability, T/C [11]: 54.2%
viability, T/C [12]: 55.5%
viability, T/C [13]: 44.1%
viability, T/C [14]: 48.6%
viability, T/C [15]: 44.7%
viability, T/C [16]: 34.2%
viability, T/C [17]: 31.3%
viability, T/C [18]: 24.3%
viability, T/C [19]: 26.8%
viability, T/C [20]: 25.1%
viability, T/C [21]: 23.1%
viability, T/C [22]: 20%
viability, T/C [23]: 21%
viability, T/C [24]: 16.6%
viability, T/C [25]: 16%
viability, T/C [26]: 19.6%
viability, T/C [27]: 20.8%
viability, T/C [28]: 20.4%
viability, T/C [29]: 15.3%
viability, T/C [30]: 14%
viability, T/C [31]: 20.7%
viability, T/C [32]: 15.7%
viability, T/C [33]: 21.8%
viability, T/C [34]: 19.8%
viability, T/C [35]: 15.7%
viability, T/C [36]: 17.2%

Source: PubChem BioAssay AID2060495 (Molecular Pharmacology Branch, DTP, NCI, 2025)
